The results in this text go back to patent publication US5591711A, “L-lysyl-glycyl-L-histidine and therapeutic agent for wound healing containing the same” (Hoechst Japan Limited, priority 1994, dated 1997).

Peptide text beside a SMILES is read from it.

The assay relates to Balb/3T3 cells. In words: Fibroblast proliferation promoting activity (3H-thymidine incorporation). Format: cell-based. As to conditions: Balb/3T3 fibroblasts; for Incorporated 3H-thymidine: 15 h incubation then 6 h 3H-thymidine, mean ± SD, 4 cases per group. The method, then:
Fibroblast cell strains, Balb/3T3 cells (purchased from ATCC) were inoculated into a 96-well culture plate at-5×10^3 cells/well, 100 μl of 10% calf serum-containing Dulbecco Modified Eagle Medium (hereinafter referred to as DME) was added and incubated at. 37 uC for 24 hours in an incubator. Then, the culture medium was removed and the cells were washed. One hundred μl of lowered serum medium (0.2% calf serum-containing DME) Was added to the wells and incubation was continued for another 3 days. L-lysyl-glycyl-L-histidine obtained in Example 1 was added thereto at 10 μl/well and incubation was performed for 15 hours. The culture medium contains a trace amount of Cu2+, and a part of L-lysyl-glycyl-L-histidine may form copper complexes. The 3H-thymidine was added to be 74 KBq/ml and incubation was performed for 6 hours. After completion of the incubation, the medium was removed, the cells were collected and the amount of 3H-thymidine incorporated in the cells was determined.
Background: Incorporation of labelled thymidine or its analogues reports DNA synthesis.

As to `NCCCC[C@H](N)C(=O)NCC(=O)N[C@@H](Cc1c[nH]cn1)C(=O)O` [L-lysyl-glycyl-L-histidine] (H-Lys-Gly-His-OH), for the setting “10^-6 to 10^-3 M, conclusion from Table 1”, the “cell proliferation promoting activity” value is “dose-dependent cell proliferation promoting activity”. Also, the “Incorporated 3H-thymidine” value came to 7719.5 ± 1246.8 cpm (Dose 10^-3 M), 4889.8 ± 495.1 cpm (Dose 10^-4 M), 1371.8 ± 249.1 cpm (Dose 10^-5 M) and 1406.5 ± 470.5 cpm (Dose 10^-6 M).
